The results in this text go back to paper PMC11595864, “Design, Synthesis, and Evaluation of Novel Thiazole-Containing Algicides Inspired by Bacillamide A” (Marine Drugs, 2024).

In brackets after ≈: the same amount, converted by molar mass. Read-outs that look alike come from different tables or passages of the source. Where only a bound is given, the exact number is not on record here.

The subject of data set [1] is P. minimum. Briefly: Growth-inhibition rate measurement at 50 mg/L, 24 h. The class given is cell-based, Prorocentrum minimum. The following applies: for inhibition at 50 µg/mL: Prorocentrum minimum, read-out: inhibition rate against P. minimum. How it is done:
(§1) P. minimum, A. pacificum, and S. costatum were purchased from Guangyu Biological Technology Co., Ltd. (Shanghai, China). The algae strain was cultured in F/2 medium ((12 h light: 12 h dark cycle), 20 ± 1 °C, 70 μmol m^−2 s^−1). Purchased algae were transferred to sterile conical flasks for culture; after the algae proliferation was stabilized, the expanded culture was next carried out following standard conditions.
(§2) The stock solutions of bacillamide A and different BDs were prepared in dimethyl sulfoxide (DMSO) with the requisition amount. […] The controls received the same volume of DMSO. The inhibitory activities of bacillamide A, different BDs, and positive controls were screened by 96 well microtiter plates at different concentrations. Inhibition ratios (IRs) of cupric sulfate (50 mg/L, positive control), bacillamide A (50 mg/L), and BDs (50 mg/L) were calculated on algae using Equation (1). (1) IR=Cc0-Cex/Cc0×100%
(§3) The CC0 and Cex, respectively, represent the algal densities of the control and experimental groups.

Data set [2] concerns S. costatum. The data set is described as above. The class given is cell-based, Skeletonema costatum. The following applies: for inhibition at 50 µg/mL: Skeletonema costatum, read-out: inhibition rate against S. costatum. How it is done:
as §1, §2, §3

Data set [3] has as its system P. minimum. Briefly: Algicidal activity assay, EC50. The format is cell-based, Prorocentrum minimum. The following applies: for EC50: Prorocentrum minimum, read-out: EC50 P. minimum. How it is done: as §1
(§4) Copper sulfate and Diuron were used as the positive controls. EC50 values were calculated according to the equation of the quantity–effect relationship in Equation (2) using the Hill model of Graph Pad Prism software (8.0.2). (2) Y=Bottom+(Top-Bottom)/1+10^(Log EC50-X)×Hill Slope
(§5) The X and Y values represent the concentration (mg/L) and response values of the control and experimental groups, respectively. The Top, Bottom, and Hill Slope represent the maximum response, minimum response, and the curve slope, respectively. The EC50 represents half of the maximum effective concentration.

For data set [4], the system named is S. costatum. Briefly: Algicidal activity assay, EC50. The format is cell-based, Skeletonema costatum. The following applies: for EC50: Skeletonema costatum, read-out: EC50 S. costatum. How it is done:
as §1, §4, §5

In data set [5] the test system is A. pacificum. Briefly: Algicidal activity assay, EC50. The format is cell-based, Alexandrium pacificum. The note with it: Mean ± SD, n = 3; for EC50: Alexandrium pacificum. The procedure: as §1, §4, §5
The test system of data set [6] is A. pacificum. Briefly: Growth-inhibition rate measurement at 50 mg/L, 24 h. The format is cell-based, Alexandrium pacificum. The following applies: for inhibition at 50 µg/mL: Alexandrium pacificum, read-out: inhibition rate against A. pacificum. How it is done:
as §1, §2, §3

The next data set deals with zebrafish. The data set can be described thus: Zebrafish acute toxicity assay. The note with it: zebrafish. The class given is in vivo. The procedure:
Zebrafish acute toxicity of bacillamide A and synthesized BDs were evaluated at 0.1 mg/L, 1 mg/L, and 10 mg/L, respectively. Diuron and CuSO4 were used as positive controls. The commercial zebrafish (body length > 3.0 cm) were domesticated in aerated tap water for 24 h, fed once daily for seven consecutive days, and stopped being fed before the experiment.
4. Acute toxicity table S1.
Compound Concentration Survival percent Acute
aAccording to the Guide for Environmental Safety Assessment of Chemical Pesticides
4 groups and treated with different compounds for 96 h.

Data set [7] relates to P. minimum. The data set can be described thus: ROS level (DCFH-DA fluorescent probe assay). The class given is cell-based, Prorocentrum minimum. The following applies: 10 mg/L, 72 h. The procedure: (§6) P. minimum, S. costatum, and A. pacificum cells were cultured in F/2 medium. All flasks were cultivated under 12 h of light: 12 h of dark and 70 μmol m^−2 s^−1 at 20 ± 1 °C. […] Finally, the algal cells were collected and diluted in 6 mL of phosphate buffer (pH = 7.8). A small amount of quartz sand was added into the algal cells under ice bath. The obtained homogenate was next poured into a centrifuge tube and centrifuged at 5000 r/min for 25 min at 4 °C. The obtained supernatant was placed in the refrigerator at 4 °C for the next step experiment.
(§7) The reactive oxygen species (ROS) assay kit was purchased from SolarBio Co., Ltd., Beijing, China. The 2′,7′-dichlorodihydrofluorescein diacetate (DCFH-DA) could be oxidized by reactive oxygen or nitrogen species (ROS/RNS) to generate high fluorescent 2′,7′-dichlorofluoroscein (DCF). DCF could be detected by Cyto-FLEX flow cytometry.

The subject of data set [8] is S. costatum. The data set can be described thus: ROS level (DCFH-DA fluorescent probe assay). The class given is cell-based, Skeletonema costatum. The following applies: 10 mg/L, 72 h. How it is done: as §6, §7

`O=C(NCCc1c[nH]c2ccccc12)c1csc(-c2ccccc2[N+](=O)[O-])n1` [Compound 6b] had a melting point of 122 to 123 °C.
Regarding `CCOc1ccc(-c2nc(C(=O)NCCc3c[nH]c4ccccc34)cs2)cc1` [Compound 6c], the melting point lay within 184 to 185 °C. Besides, the inhibition at 50 µg/mL in the data set on P. minimum [1] stood at 70.8%. Further, in the data set on S. costatum [2], the “inhibition rate against S. costatum” value is on record as 72.6% and the inhibition at 50 µg/mL is > 70%. In addition, in the data set with P. minimum [3] (Mean ± SD, n = 3), the 50% effective concentration (EC50) worked out at 1.29 ± 0.08 µg/mL (≈ 3.3 µM). In addition, in the data set on S. costatum [4] (Mean ± SD, n = 3), the concentration for a half-maximal effect (EC50) is 0.51 ± 0.04 µg/mL (≈ 1.3 µM). Besides, in the data set with A. pacificum [5], the EC50 came out at 2.43 ± 0.42 µg/mL (≈ 6.21 µM).
Turning to `CN(C)C(=O)Nc1ccc(Cl)c(Cl)c1` [Diuron, reference compound], the EC50 was 4.72 ± 0.41 µg/mL (≈ 20.2 µM) with P. minimum [3], 4.32 ± 0.14 µg/mL (≈ 18.5 µM) in the data set on S. costatum [4] and 5.69 ± 0.46 µg/mL (≈ 24.4 µM) with A. pacificum [5].
`CN(C)CCNC(=O)c1csc(-c2ccccc2)n1` [Compound 7d]: the EC50 came to 3.22 ± 0.39 µg/mL (≈ 11.7 µM) in the data set with P. minimum [3] (Mean ± SD, n = 3); 0.77 ± 0.21 µg/mL (≈ 2.8 µM) in the data set with S. costatum [4] (Mean ± SD, n = 3); 2.02 ± 0.54 µg/mL (≈ 7.34 µM) in the data set on A. pacificum [5]. The inhibition at 50 µg/mL in the data set with A. pacificum [6] is 70 to 95%.
Regarding `COc1ccc2[nH]cc(CCNC(=O)c3csc(-c4ccccc4)n3)c2c1` [Compound 7b], the melting point is 164 to 165 °C. In addition, in the data set with P. minimum [1], the inhibition at 50 µg/mL stood at 82.3%. Besides, in the data set with P. minimum [3] (Mean ± SD, n = 3), the half-maximal effective concentration (EC50) was 1.32 ± 0.38 µg/mL (≈ 3.5 µM). Besides, the concentration giving a half-maximal response (EC50) in the data set with S. costatum [4] (Mean ± SD, n = 3) is 0.37 ± 0.07 µg/mL (≈ 0.98 µM). Further, the midpoint of the response in the data set on A. pacificum [5], the EC50, lay at 0.72 ± 0.021 µg/mL (≈ 1.91 µM).
On to `O=C(NCCc1c[nH]c2ccccc12)c1csc(-c2cccs2)n1` [Compound 6e], for which the melting point fell in the range of 189 to 190 °C.
Take `O=C(NCCc1c[nH]c2ccccc12)c1csc(-c2ccccc2)n1` [Compound 6a]: the inhibition at 50 µg/mL in the data set on S. costatum [2] was > 70%; with A. pacificum [6], 70 to 95%. Besides, the 50% effective concentration (EC50) in the data set on P. minimum [3] (Mean ± SD, n = 3) stood at 1.74 ± 0.4 µg/mL (≈ 5.01 µM); in the data set with S. costatum [4] (Mean ± SD, n = 3), 0.11 ± 0.02 µg/mL (≈ 0.317 µM); in the data set on A. pacificum [5], 3.32 ± 0.79 µg/mL (≈ 9.56 µM). The Survival percent in the data set on zebrafish (0.1 mg/L, 0h) worked out at 100; in the data set on zebrafish (0.1 mg/L, 24h) it was 100; in the data set on zebrafish (0.1 mg/L, 48h), 100; in the data set on zebrafish (0.1 mg/L, 72h), 100; with zebrafish (0.1 mg/L, 96h), 100; in the data set on zebrafish (1 mg/L, 0h) it was 100. Also, the Survival percent in the data set on zebrafish (1 mg/L, 24h) turned out to be 83; in the data set on zebrafish (1 mg/L, 48h), 80; in the data set on zebrafish (1 mg/L, 72h) it was 80; in the data set on zebrafish (1 mg/L, 96h) it was 73; with zebrafish (10 mg/L, 0h), 100; in the data set with zebrafish (10 mg/L, 24h), 0. The Survival percent came to 0 in the data set with zebrafish (10 mg/L, 48h); 0 with zebrafish (10 mg/L, 72h); 0 with zebrafish (10 mg/L, 96h). The “fold more potent than CuSO4” value in the data set with S. costatum [4] (from EC50 against S. costatum) stood at 28 fold. Also, the “fold more potent than Diuron” value in the data set with S. costatum [4] (from EC50 against S. costatum) is 39 fold. In addition, the “fold more potent than bacillamide A” value with S. costatum [4] (from EC50 against S. costatum) amounted to 23 fold.
Turning to `O=C(NCCc1ccccc1)c1csc(-c2ccccc2)n1` [Compound 7c], the inhibition at 50 µg/mL was 74.7% in the data set with P. minimum [1] and 70 to 95% with A. pacificum [6]. For the same molecule, the concentration for a half-maximal effect (EC50) worked out at 3.38 ± 0.84 µg/mL (≈ 11 µM) in the data set with P. minimum [3] (Mean ± SD, n = 3); 0.24 ± 0.058 µg/mL (≈ 0.778 µM) in the data set with S. costatum [4] (Mean ± SD, n = 3); 0.53 ± 0.32 µg/mL (≈ 1.72 µM) with A. pacificum [5].
Take `NCCNC(=O)c1csc(-c2ccccc2)n1` [Compound 7g]: the melting point is 173 to 174 °C. The inhibition at 50 µg/mL in the data set on P. minimum [1] was determined as 76.9%. Moreover, the EC50 in the data set on P. minimum [3] (Mean ± SD, n = 3) turned out to be 2.02 ± 0.27 µg/mL (≈ 8.17 µM). In addition, the EC50 with S. costatum [4] (Mean ± SD, n = 3) turned out to be 2.28 ± 0.37 µg/mL (≈ 9.22 µM). This molecule showed an EC50 in the data set with A. pacificum [5] of 3.42 ± 0.13 µg/mL (≈ 13.8 µM).
On to `O=C(Nc1ccccc1)c1csc(-c2ccccc2)n1` [Compound 7e], for which the EC50 with P. minimum [3] (Mean ± SD, n = 3) stood at 3.23 ± 0.39 µg/mL (≈ 11.5 µM); in the data set on S. costatum [4] (Mean ± SD, n = 3) it was 1.1 ± 0.31 µg/mL (≈ 3.92 µM); in the data set with A. pacificum [5], 0.69 ± 0.07 µg/mL (≈ 2.46 µM). In the data set on A. pacificum [6], the inhibition at 50 µg/mL lay within 70 to 95%.
Regarding `O=S(=O)([O-])[O-].[Cu+2]` [CuSO4, cupric sulfate anhydrous, reference compound], in the data set on P. minimum [7], the “increase of ROS levels in P. minimum” value stood at 9.6 fold. The “increase of ROS levels in S. costatum” value in the data set with S. costatum [8] is 7.7 fold. Moreover, in the data set with P. minimum [3] (Mean ± SD, n = 3), the “EC50 P. minimum” value amounted to 3.61 ± 0.32 µg/mL. Also, the Survival percent in the data set on zebrafish (0.1 mg/L, 0h) is 100; in the data set with zebrafish (0.1 mg/L, 24h), 100; in the data set with zebrafish (0.1 mg/L, 48h), 80; in the data set with zebrafish (0.1 mg/L, 72h), 73; in the data set with zebrafish (0.1 mg/L, 96h), 73; with zebrafish (1 mg/L, 0h), 100. For the same molecule, the Survival percent in the data set with zebrafish (1 mg/L, 24h) was determined as 50; in the data set on zebrafish (1 mg/L, 48h), 50; in the data set with zebrafish (1 mg/L, 72h), 43; with zebrafish (1 mg/L, 96h), 43; in the data set on zebrafish (10 mg/L, 0h), 100; with zebrafish (10 mg/L, 24h), 0. Further, the Survival percent in the data set on zebrafish (10 mg/L, 48h) came out at 0; in the data set with zebrafish (10 mg/L, 72h) it was 0; with zebrafish (10 mg/L, 96h), 0. Moreover, the “EC50 S. costatum” value in the data set on S. costatum [4] (Mean ± SD, n = 3) was 3.12 ± 0.21 µg/mL. Further, the “EC50 A. pacificum” value with A. pacificum [5] was determined as 2.34 ± 0.06 µg/mL.
In turn, `CC(C)(C)OC(=O)NCCNC(=O)c1csc(-c2ccccc2)n1` [Compound 7f] yielded a melting point of 162 to 163 °C. Moreover, the “inhibition rate against P. minimum” value with P. minimum [1] is on record as “lost most of its algicidal activity”. The “inhibition rate against A. pacificum” value in the data set on A. pacificum [6] was “lost most of its algicidal activity”.

Usually melting point stands for the temperature of the solid-liquid transition. What is called inhibition is how much of the control response was suppressed. What is called EC50 is the midpoint of the concentration-response curve.
